As usually defined, the inhibition is the relative decrease from the control value, in per cent.

19 molecules from patent publication US7897602B2, “Indolinone compounds as kinase inhibitors” (Development Center for Biotechnology, priority 2009, dated 2011) can be followed below.

In one test the target is T1, Flt3 kinase (Homo sapiens, UniProt P36888).
T1 construct: recombinant N-terminal 6×His-tagged Flt3 kinase domain construct expressed from baculovirus; 6xHis (N); made in house
T1 sequence (P36888 610-943 limits assumed): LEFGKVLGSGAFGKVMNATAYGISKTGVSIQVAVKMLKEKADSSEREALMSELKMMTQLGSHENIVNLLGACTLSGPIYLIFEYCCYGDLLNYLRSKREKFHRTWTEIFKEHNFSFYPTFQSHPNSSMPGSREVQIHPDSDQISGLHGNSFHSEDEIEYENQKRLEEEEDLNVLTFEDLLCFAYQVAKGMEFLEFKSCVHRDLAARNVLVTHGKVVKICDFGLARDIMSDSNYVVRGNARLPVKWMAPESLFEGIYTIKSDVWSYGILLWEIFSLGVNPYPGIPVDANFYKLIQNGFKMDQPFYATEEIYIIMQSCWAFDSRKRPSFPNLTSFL
As to the kind of experiment: Flt3 kinase assay (33P incorporation into Poly(Glu-Tyr)). The class given is biochemical. The note with it: 100 nM test compound; read-out: Inhibition at 100 nM (%) Flt-3. The protocol: Inhibition of Flt3 kinase activity by compounds disclosed herein was quantified by measuring the amount of [^33P] incorporated into the substrate in the presence of a test compound. Briefly, a reaction mixture of 25 μL final volume containing 5 ng of Flt3 kinase (obtained by purifying recombinant N-terminal 6×His-tagged Flt3 kinase domain construct expressed from baculovirus), 5 μg of the substrate (Poly (Glu-Tyr, 4:1, Sigma)), kinase reaction buffer (20 mM MOPS pH 7.0, 1 mM EDTA, 5% glycerol, 0.01% Brij-35, 0.1% β-mercaptoethanol, 1 mg/mL BSA, 100 μM ATP, 0.1 μCi per well [^33P]-γ-ATP (2,500-3,000 Ci/mmol)), and a test compound (100 nM, diluted with 4% DMSO) or DMSO (as the control) was incubated at 30° C. for 30 minutes. The reaction was stopped by adding 5 μL of 3% phosphoric acid solution. The resultant reaction solution was then harvested onto a filter plate (UniFilter-96 GF/B, PerkinElmer), washed 20 times for 5 min with d.d. H2O, and followed by the addition of 30 μL of MicroScint™-20 Cocktail (PerkinElmer). The plate was then sealed and counted using a TopCount scintillation detector (PerkinElmer). The percentage of inhibition rate of the test compound was calculated by dividing the retained radioactivity of the test sample with the retained radioactivity of the control sample and shown in Table 3.

For another test, the target named is T2, VEGFR2 kinase (Homo sapiens, UniProt P35968).
T2 construct: recombinant N-terminal 6×His-tagged VEGFR2 kinase domain construct expressed by baculovirus; 6xHis (N); made in house
In words: VEGFR2 kinase assay (33P incorporation into Poly(Glu-Tyr)). The class given is biochemical. The note with it: 500 nM test compound; read-out: Inhibition at 500 nM (%) VEGFr-2. The protocol: Inhibition of VEGFR2 kinase activity by compounds disclosed herein was quantified by measuring the amount of [^33P] incorporated into the substrate in the presence of a test compound. Specifically, a reaction mixture with a final volume of 25 μL and containing 6.25 ng of VEGFR2 kinase (obtained by purifying recombinant N-terminal 6×His-tagged VEGFR2 kinase domain construct expressed by baculovirus), 5 μg of substrate (Poly (Glu-Tyr, 4:1, Sigma)), kinase reaction buffer (20 mM MOPS pH 7.0, 1 mM EDTA, 5% glycerol, 0.01% Brij-35, 0.1% β-mercaptoethanol, 1 mg/mL BSA, 100 μM ATP, 0.1 μCi per well [^33P]-γ-ATP (2,500-3,000 Ci/mmol), and 500 nM test compound (final concentration of DMSO was 4%) or 4% DMSO alone (as the control sample), was incubated at 30° C. for 30 minutes. The reaction was then stopped by adding 5 μL of 3% phosphoric acid solution. The resultant solution was transferred to and harvested by a filter plate (UniFilter-96 GF/B, PerkinElmer). The filter plate was then washed 20 times with d.d. H2O for 5 min followed by the addition of 30 μL of MicroScint™-20 Cocktail (PerkinElmer). After the plate was sealed, the retained radioactivity on the filter was counted using a TopCount scintillation detector (PerkinElmer). The percentage of inhibition rate of the test compound was calculated by dividing the retained radioactivity of the test sample with the retained radioactivity of the control sample and shown in Table 3.

Counter-ions that a name gives are not always drawn.

T2 sequence (P35968 834-1162 limits assumed): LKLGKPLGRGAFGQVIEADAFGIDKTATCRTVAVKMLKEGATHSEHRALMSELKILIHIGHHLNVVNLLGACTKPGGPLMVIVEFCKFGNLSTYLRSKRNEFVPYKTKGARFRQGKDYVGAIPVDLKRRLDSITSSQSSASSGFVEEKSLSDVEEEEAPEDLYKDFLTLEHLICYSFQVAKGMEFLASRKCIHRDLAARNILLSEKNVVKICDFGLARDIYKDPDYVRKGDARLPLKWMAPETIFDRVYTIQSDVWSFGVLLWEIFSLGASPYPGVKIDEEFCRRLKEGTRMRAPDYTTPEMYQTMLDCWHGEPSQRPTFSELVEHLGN

For `CCOC(=O)CCc1c(/C=C2\C(=O)Nc3cc(Br)ccc32)[nH]c2c1C(=O)CCC2` [DCB-70130, (Z)-ethyl 3-(2-((6-bromo-2-oxoindolin-3-ylidene)methyl)-4-oxo-4,5,6,7-tetrahydro-1H-indol-3-yl)propanoate], the inhibition at 0.1 µM on Flt3 kinase stood at 89.1%. Besides, the inhibition at 0.5 µM on VEGFR2 kinase was found to be 69.8%.
For `O=C(O)CCc1c(C=C2C(=S)Nc3ccccc32)[nH]c2c1C(=O)CCC2` [DCB-70084, 3-((3-carboxyethyl-4-oxo-4,5,6,7-tetrahydro-1H-indol-2-yl)methylene)indolin-2-thione] the same measures were -2.6% and 13.4%.
For `CNS(=O)(=O)c1ccc2c(c1)/C(=C/c1[nH]c3c(c1CCC(=O)O)C(=O)CCC3)C(=O)N2` [DCB-70065, (Z)-5-(N-methylsulfamoyl)-3-((3-carboxyethyl-4-oxo-4,5,6,7-tetrahydro-1H-indol-2-yl)methylene)indolin-2-one] the same measures were -6.8% and 47.9%.
For `Cc1ccc(NC(=O)Nc2ccc3c(c2)/C(=C/c2[nH]c4c(c2CCC(=O)O)C(=O)CCC4)C(=O)N3)cc1` [DCB-70093, (Z)-5-(3-p-tolylureido)-3-((3-carboxyethyl-4-oxo-4,5,6,7-tetrahydro-1H-indol-2-yl)methylene)indolin-2-one], the inhibition at 0.1 µM on Flt3 kinase amounted to 44.7%. For the same molecule, the inhibition at 0.5 µM on VEGFR2 kinase was 70.1%.
Take `CCOC(=O)CCc1c(/C=C2\C(=O)Nc3ccc(Br)cc32)[nH]c2c1C(=O)CCC2` [DCB-70056, (Z)-5-bromo-3-((3-(3-ethoxy-3-oxopropyl)-4-oxo-4,5,6,7-tetrahydro-1H-indol-2-yl)methylene)indolin-2-one]: on Flt3 kinase, the inhibition at 0.1 µM came to 99.2%. Further, on VEGFR2 kinase, the inhibition at 0.5 µM was determined as 89.6%.
In the case of `C=CS(=O)(=O)c1ccc2c(c1)/C(=C/c1[nH]c3c(c1CCC(=O)O)C(=O)CCC3)C(=O)N2` [DCB-70115, (Z)-5-vinylsulfonyl-3-((3-carboxyethyl-4-oxo-4,5,6,7-tetrahydro-1H-indol-2-yl)methylene)indolin-2-one], the inhibition at 0.1 µM on Flt3 kinase came out at 26.8%. Further, on VEGFR2 kinase, the inhibition at 0.5 µM was found to be 52.2%.
Take `CCOC(=O)CCc1c(/C=C2\C(=O)Nc3ccc(NC(=O)Nc4ccc(C)cc4)cc32)[nH]c2c1C(=O)CCC2` [DCB-70091, (Z)-5-(3-p-tolylureido)-3-((3-(3-ethoxy-3-oxopropyl)-4-oxo-4,5,6,7-tetrahydro-1H-indol-2-yl)methylene)indolin-2-one]: the inhibition at 0.1 µM on Flt3 kinase was found to be 11.1%. The inhibition at 0.5 µM at VEGFR2 kinase amounted to 24.6%.
For `O=C(O)CCc1c(/C=C2\C(=O)Nc3ccc(-c4ccc(F)cc4)cc32)[nH]c2c1C(=O)CCC2` [DCB-70109, (Z)-5-(4-fluorophenyl)-3-((3-carboxyethyl-4-oxo-4,5,6,7-tetrahydro-1H-indol-2-yl)methylene)indolin-2-one] the same measures were 19.2% and 58.6%.
For `CCOC(=O)CCc1c(/C=C2\C(=O)Nc3cc(-c4ccc(O)cc4)ccc32)[nH]c2c1C(=O)CCC2` [DCB-70066, (Z)-6-(4-hydroxyphenyl)-3-((3-(3-ethoxy-3-oxopropyl)-4-oxo-4,5,6,7-tetrahydro-1H-indol-2-yl)methylene)indolin-2-one] the same measures were 38.6% and 94.3%.
Regarding `CCN(CC)C(=O)CCc1c(/C=C2\C(=O)Nc3ccc(F)cc32)[nH]c2c1C(=O)CCC2` [DCB-70124, (Z)-N,N-diethyl-3-(2-((5-fluoro-2-oxoindolin-3-ylidene)methyl)-4-oxo-4,5,6,7-tetrahydro-1H-indol-3-yl)propanamide], the inhibition at 0.1 µM on Flt3 kinase was 88.6%. Also, the inhibition at 0.5 µM at VEGFR2 kinase was determined as 72.5%.
Turning to `O=C(O)CCc1c(/C=C2\C(=O)Nc3cc(-c4ccc(O)c(O)c4)ccc32)[nH]c2c1C(=O)CCC2` [DCB-70078, (Z)-6-(3,4-dihydroxyphenyl)-3-((3-carboxyethyl-4-oxo-4,5,6,7-tetrahydro-1H-indol-2-yl)methylene)indolin-2-one], at Flt3 kinase, the inhibition at 0.1 µM stood at 75%. Further, the inhibition at 0.5 µM on VEGFR2 kinase is 98.9%.
Consider `CCOC(=O)CCc1c(/C=C2\C(=O)Nc3cc(-c4ccc5c(c4)OCO5)ccc32)[nH]c2c1C(=O)CCC2` [DCB-70128, (Z)-ethyl 3-(2-((6-(benzo[d][1,3]dioxol-5-yl)-2-oxoindolin-3-ylidene)methyl)-4-oxo-4,5,6,7-tetrahydro-1H-indol-3-yl)propanoate], for which the inhibition at 0.1 µM on Flt3 kinase came to 3.2%. Further, the inhibition at 0.5 µM at VEGFR2 kinase amounted to 19.3%.
On to `CN1CCN(S(=O)(=O)c2ccc3c(c2)/C(=C/c2[nH]c4c(c2CCC(=O)O)C(=O)CCC4)C(=O)N3)CC1` [DCB-70107, (Z)-5-(4-methylpiperazin-1-ylsunfonyl)-3-((3-carboxyethyl-4-oxo-4,5,6,7-tetrahydro-1H-indol-2-yl)methylene)indolin-2-one hydrochloride], for which the inhibition at 0.1 µM at Flt3 kinase came out at 10.8%. Besides, the inhibition at 0.5 µM on VEGFR2 kinase came out at 48.8%.
For `CCOC(=O)CCc1c(/C=C2\C(=O)Nc3ccc(NC(=O)c4ccc([N+](=O)[O-])cc4)cc32)[nH]c2c1C(=O)CCC2` [DCB-70140, (Z)-ethyl 3-(2-((5-(4-nitrobenzamido)-2-oxoindolin-3-ylidene)methyl)-4-oxo-4,5,6,7-tetrahydro-1H-indol-3-yl)propanoate] the same measures were 5.5% and 27.6%.
For `COc1cc(-c2ccc3c(c2)/C(=C/c2[nH]c4c(c2CCC(=O)O)C(=O)CCC4)C(=O)N3)ccc1O` [DCB-70059, (Z)-5-(4-hydroxyl-3-methoxyphenyl)-3-((3-carboxyethyl-4-oxo-4,5,6,7-tetrahydro-1H-indol-2-yl)methylene)indolin-2-one] the same measures were 21.5% and 70.9%.
For `CCOC(=O)CCc1c(/C=C2\C(=O)Nc3ccc(NC(=O)Nc4ccc(Br)cc4)cc32)[nH]c2c1C(=O)CCC2` [DCB-70135, (Z)-ethyl 3-(2-((5-(3-(4-bromophenyl)ureido)-2-oxoindolin-3-ylidene)methyl)-4-oxo-4,5,6,7-tetrahydro-1H-indol-3-yl)propanoate] the same measures were 20.3% and 44.6%.
As for `O=C(O)CCc1c(/C=C2\C(=O)Nc3cc(-c4cc(F)cc(F)c4)ccc32)[nH]c2c1C(=O)CCC2` [DCB-70101, (Z)-6-(3,5-difluorophenyl)-3-((3-carboxyethyl-4-oxo-4,5,6,7-tetrahydro-1H-indol-2-yl)methylene)indolin-2-one], the inhibition at 0.1 µM at Flt3 kinase worked out at 8.5%. In addition, on VEGFR2 kinase, the inhibition at 0.5 µM was 73.8%.
For `CCOC(=O)CCc1c(/C=C2\C(=O)Nc3cc(F)ccc32)[nH]c2c1C(=O)CCC2` [DCB-70122, (Z)-6-fluoro-3-((3-(3-ethoxy-3-oxopropyl)-4-oxo-4,5,6,7-tetrahydro-1H-indol-2-yl)methylene)indolin-2-one] the same measures were 82.2% and 84%.
On to `O=C(O)CCc1c(/C=C2\C(=O)Nc3ccc(NC(=O)c4ccc(F)cc4)cc32)[nH]c2c1C(=O)CCC2` [DCB-70076, (Z)-5-(4-fluorobenzamido)-3-((3-carboxyethyl-4-oxo-4,5,6,7-tetrahydro-1H-indol-2-yl)methylene)indolin-2-one], for which the inhibition at 0.1 µM on Flt3 kinase is -3.1%. The inhibition at 0.5 µM on VEGFR2 kinase worked out at 59.8%.
